What was measured:
[1] = test system: recurrent or refractory ATL patients; assay: multicenter open-label phase I trial of the clinical compound in non-Hodgkin's lymphoma patients; ATL patients analyzed; assay type: in vivo, human; parameters: key to Determination of effect on lesion site: Peripheral blood image / Best overall effect / Determination of effect on lesion site: Nodular lesion / Determination of effect on lesion site: Extranodal lesion: CR: Complete Remission; CRu: Uncertified Complete Remission; PR: Partial Remission; SD: Stable Disease; PD: Progressive Disease; NE: Not Evaluable
Method: Clinical trials which administer the clinical compound to patients with non-Hodgkin's lymphoma were carried out. ATL patients of the non-Hodgkin's lymphoma patients receiving the clinical compound were analyzed.
The clinical trial is a multicenter open-label phase I trial for the purpose of studying, e.g., safety, tolerability, pharmacokinetics and anti-tumor effect, by administering the clinical compound to patients with recurrent or refractory non-Hodgkin's lymphoma (no standard treatment is established or refractory or intolerant to a standard treatment) including ATL patients. […] In this manner, dose-limiting toxicity and recommended dose for the next phase are determined in the clinical trial.
The clinical compound was orally administered to individual test subjects once a day for consecutive days until unacceptable toxicity or disease progression was confirmed. […] The anti-tumor effect was observed principally, at intervals of 8 weeks, and evaluated based on “Definition, prognostic factors, treatment, and response criteria of adult T-cell leukemia-lymphoma: a proposal from an international consensus meeting” (J Clin Oncol. 2009; 27[3]: 453-9).
The dose of the first cohort was determined to be 150 mg/time/day based on the results of a nonclinical study. The dose of the next cohort was determined by comprehensively evaluating the dose recommended by the modified continual reassessment method (mCRM) based on information of the presence or absence of dose-limited toxicity and all safety data (including adverse event except dose limiting toxicity and abnormal laboratory test values), pharmacokinetics, biomarkers, and effectiveness data obtained up to the time point, and discussing with a sponsors, investigators and external experts.
The dosage amount of the clinical compound was in advance determined per cohort. As the clinical compound, two types of capsules different in dose were provided in combination. As the administration method, oral administration once a day was carried out for consecutive days.
The therapeutic effect on ATL was determined based on “Definition, prognostic factors, treatment, and response criteria of adult T-cell leukemia-lymphoma: a proposal from an international consensus meeting” (J Clin Oncol. 2009; 27[3]: 453-9). Before initiation of the clinical trial, necessary examinations, which were selected from CT scan, bone marrow examination, endoscopic inspection and blood test in accordance with the disease state of the test subject, were carried out to determine a target lesion. A change in the lesion was assessed principally at intervals of 8 weeks.

[2] = test system: ATL patients with a history of treatment with the anti-CCR4 antibody mogamulizumab; conditions: phase II trials; cited from earlier work
[3] = ATL patient No. 1, 150 mg oral once a day, treatment history: mogamulizumab present, lenalidomide present
[4] = ATL patient No. 2, 150 mg oral once a day, treatment history: mogamulizumab present, no lenalidomide
[5] = ATL patient No. 9, 200 mg oral once a day, treatment history: no mogamulizumab, lenalidomide present

SMILES | median value of PFS ([1]; 9 recurrent or refractory ATL patients) [weeks] | Best overall effect [1, 3] | Determination of effect on lesion site: Extranodal lesion [1, 3] | Determination of effect on lesion site: Nodular lesion [1, 3] | Best overall effect [1, 4] | Determination of effect on lesion site: Extranodal lesion [1, 4] | Determination of effect on lesion site: Nodular lesion [1, 4] | Best overall effect [1, 5] | Determination of effect on lesion site: Peripheral blood image [1, 5] | patients evaluated as SD ([1]; of 6 patients with a history of treatment with mogamulizumab) [patients] | responders ([1]; of 6 patients with a history of treatment with mogamulizumab (CRu: 1 patient, PR: 2 patients)) [patients] | response rate ([1]; recurrent or refractory ATL patients evaluable for effectiveness, 4 out of 9 patients [CRu: 1, PR: 3], 95%CI 13.7 to 78.8, intermediate data, oral once a day) [%] | disease control rate (percentage of patients exerting an effect of SD or more) ([1]; recurrent or refractory ATL patients, 7 out of 9 patients, intermediate data) [%] | response rate [2]
Cc1cc(C)c(CNC(=O)c2cc(Cl)c3c(c2C)O[C@@](C)([C@H]2CC[C@H](N(C)C)CC2)O3)c(=O)[nH]1.Cc1ccc(S(=O)(=O)O)cc1 [clinical compound, (2R)-7-chloro-2-[trans-4-(dimethylamino)cyclohexyl]-N-[(4,6-dimethyl-2-oxo-1,2-dihydropyridin-3-yl)methyl]-2,4-dimethyl-1,3-benzodioxol-5-carboxamide p-toluenesulfonate] | 16.1 | PD | PD | PD | PR | PR | Cru | PR | PR | 2 | 3 | 44.4 | 77.8 | –
Nc1cccc2c1CN(C1CCC(=O)NC1=O)C2=O (centres unmarked) [lenalidomide] | – | – | – | – | – | – | – | – | – | – | – | – | – | about 18%
